This note sets out measurements from ChEMBL document CHEMBL1123597, “Synthesis and structure-activity relationships of pyrazolo[4,3-d]pyrimidin-7-ones as adenosine receptor antagonists” (J Med Chem, 1987).
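For PCY in this document: radioligand displacement of N6-[3H]cyclohexyladenosine binding in rat brain membranes, PCY computed as the log of 100000 divided by IC50.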

In the first assay the target is T1, Adenosine receptor A1 (Rattus norvegicus) (UniProt P25099).
T1 sequence (whole entry): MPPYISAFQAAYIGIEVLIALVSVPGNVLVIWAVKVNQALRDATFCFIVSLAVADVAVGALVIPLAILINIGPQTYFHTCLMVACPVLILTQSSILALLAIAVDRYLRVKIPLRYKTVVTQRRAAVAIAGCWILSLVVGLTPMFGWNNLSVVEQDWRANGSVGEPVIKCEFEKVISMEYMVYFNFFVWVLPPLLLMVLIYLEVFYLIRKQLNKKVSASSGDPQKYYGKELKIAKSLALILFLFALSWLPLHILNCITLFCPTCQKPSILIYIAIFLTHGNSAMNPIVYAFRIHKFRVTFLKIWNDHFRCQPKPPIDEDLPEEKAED
To be noted: Brain; Membrane.
Description: Binding affinity against adenosine A1 receptor in rat brain membrane preparations using N6-[3H]cyclohexyladenosine as radioligand, PCY = log (100000/IC50).
As for `COc1cccc(-c2nc(O)c3c(n2)c(C)nn3C)c1`, the PCY worked out at 1.8.

On to `Cc1nn(C)c2c(O)nc(-c3ccc(Cl)cc3)nc12`, for which the PCY was found to be 2.4.

`Cc1nn(C)c2c(O)nc(-c3ccc([N+](=O)[O-])cc3)nc12`: the PCY turned out to be 2.1.

On to `Cc1nn(C)c2c(O)ncnc12`, for which the PCY came to 0.7.

For the molecule `Cn1c(=O)c2nc(-c3ccccc3N)[nH]c2n(C)c1=O`, the PCY is 4.3.

As to `CCn1nc(C)c2nc(-c3ccccc3)nc(O)c21`, the PCY is 2.2.

`Cc1ccc(-c2nc(O)c3c(n2)c(C)nn3C)cc1` returned a PCY of 2.4.

`Cn1c(=O)c2nc(-c3cccnc3)[nH]c2n(C)c1=O` yielded a PCY of 3.3.

The molecule `COc1cccc(-c2nc3c(=O)n(C)c(=O)n(C)c3[nH]2)c1` returned a PCY of 3.7.

Molecule `Cc1nn(C)c2c(O)nc(-c3ccc(Cl)c(Cl)c3)nc12` came in with a PCY of 2.

Consider `Cc1nn(C)c2c(O)nc(Cc3ccccc3)nc12`, for which the PCY was determined as 1.9.

In the case of `Cn1c(=O)c2nc(-c3ccc(S(=O)(=O)O)cc3)[nH]c2n(C)c1=O`, the PCY was found to be 3.6.

The molecule `Cc1nn(C)c2c(O)nc(-c3ccccc3N)nc12` gave a PCY of 2.6.

The molecule `Cc1nn(C)c2c(O)nc(-c3cccc([N+](=O)[O-])c3)nc12` had a PCY of 1.9.

Molecule `COc1ccc(-c2nc(O)c3c(n2)c(C)nn3C)cc1OC` came in with a PCY of 1.7.

With `Cn1c(=O)c2nc(Cc3ccccc3)[nH]c2n(C)c1=O`, the PCY was 1.8.

Molecule `Cc1nn(C)c2c(O)nc(-c3ccc(S(=O)(=O)O)cc3)nc12` returned a PCY of 1.6.

Consider `Cc1nn(C)c2c(O)nc(-c3ccc(N)cc3)nc12`, for which the PCY came out at 2.4.

For the molecule `Cc1nn(C)c2c(O)nc(-c3cccc(N)c3)nc12`, the PCY was 1.8.

`COc1ccc(-c2nc(O)c3c(n2)c(C)nn3C)c(OC)c1` returned a PCY of 1.3.

With `Cc1nn(C)c2c(O)nc(-c3ccncc3)nc12`, the PCY was determined as 2.

`COc1ccccc1-c1nc2c(=O)n(C)c(=O)n(C)c2[nH]1`: the PCY was determined as 2.5.

Take `COc1cc(OC)cc(-c2nc(O)c3c(n2)c(C)nn3C)c1`: the PCY worked out at 1.2.

In the case of `Cc1nn(C)c2c(O)nc(-c3ccccc3)nc12`, the PCY stood at 2.

With `CCn1c(=O)n(C)c(=O)c2[nH]c(-c3ccccc3)nc21`, the PCY amounted to 4.5.

Molecule `Cn1c(=O)c2nc(-c3ccc(N)cc3)[nH]c2n(C)c1=O` yielded a PCY of 4.7.

The molecule `Cc1nn(C)c2c(O)nc(-c3ccc(Cl)cc3N)nc12` registered a PCY of 2.5.

In turn, `COc1ccccc1-c1nc(O)c2c(n1)c(C)nn2C` showed a PCY of 1.

`Cn1c(=O)c2nc(-c3ccc(Cl)cc3N)[nH]c2n(C)c1=O` showed a PCY of 5.4.

Molecule `Cc1nn(C)c2c(O)nc(-c3cccnc3)nc12` returned a PCY of 1.5.

On to `Cn1c(=O)c2nc(-c3ccc(Cl)c(Cl)c3)[nH]c2n(C)c1=O`, for which the PCY stood at 4.3.

The next assay has as its target T2, Adenosine receptor A1 (Rattus norvegicus, UniProt P25099).
T2 sequence (P25099 whole entry): T1 sequence (whole entry)
Description: Binding affinity against adenosine A1 receptor in rat brain membrane preparations using N6-[3H]cyclohexyladenosine as a radioligand. In kind it is cell membranes.
Details: not given
The term IC50 denotes the midpoint of a concentration-inhibition curve. `COc1cccc(-c2nc3c(C)nn(C)c3c(=O)[nH]2)c1`: the IC50 was determined as 1470 nM.

As for `COc1ccc(-c2nc3c([nH]2)c(=O)n(C)c(=O)n3C)c(OC)c1`, the IC50 was 200 nM.

The molecule `Cc1nn(C)c2c(=O)[nH]c(-c3ccc(S(=O)(=O)NCCN(C)C)cc3)nc12` registered an IC50 of 68 nM.

Regarding `COc1ccccc1-c1nc2c([nH]1)c(=O)n(C)c(=O)n2C`, the IC50 worked out at 350 nM.

`Cn1c(=O)c2nc(-c3ccccc3N)[nH]c2n(C)c1=O`: the IC50 came out at 5.5 nM.

For the molecule `Cn1c(=O)c2[nH]c(-c3ccc(N)cc3)nc2n(C)c1=O`, the IC50 turned out to be 1.8 nM.

With `CCn1nc(C)c2nc(Cc3ccccc3)nc(O)c21`, the IC50 is 820 nM.

The molecule `COc1cc(OC)cc(-c2nc3c([nH]2)c(=O)n(C)c(=O)n3C)c1` gave an IC50 of 500 nM.

In turn, `Cn1c(=O)c2[nH]c(-c3ccc(Cl)cc3N)nc2n(C)c1=O` gave an IC50 of 0.4 nM.

`CC(Sc1nc(SC(C)C(N)=O)c2cnn(-c3ccccc3)c2n1)C(N)=O` (centres undefined) yielded an IC50 of 1030 nM.

The molecule `Cc1nn(C)c2c(=O)[nH]c(-c3ccc(N)cc3)nc12` had a half-inhibitory concentration (IC50) of 380 nM. Against the preceding molecule, the IC50 is about 2.7-fold lower.

For `Cc1nn(C)c2c(O)nc(-c3ccccc3N)nc12`, the IC50 came out at 230 nM.

`Cc1nn(C)c2c(=O)[nH]c(-c3ccc(Cl)cc3N)nc12` had an IC50 of 310 nM.

With `Cc1ccc(-c2nc3c(C)nn(C)c3c(=O)[nH]2)cc1`, the IC50 was found to be 400 nM. This IC50 and that of the molecule before are within 1.5-fold of each other.

On to `Cc1nn(C)c2c(=O)[nH]cnc12`, for which the 50% inhibitory concentration (IC50) is 20100 nM.

Molecule `Cc1ccc(-c2nc3c([nH]2)c(=O)n(C)c(=O)n3C)cc1` displayed an IC50 of 0.8 nM.

Regarding `Cc1nn(C)c2c(O)nc(-c3ccc(S(=O)(=O)O)cc3)nc12`, the IC50 amounted to 2300 nM. This IC50 lies about 2900-fold higher than the previous one.

The molecule `Cn1c(=O)c2[nH]c(-c3cccc(N)c3)nc2n(C)c1=O` displayed an IC50 of 10 nM. This IC50 lies about 230-fold lower than the previous one.

In turn, `COc1cc(OC)cc(-c2nc(O)c3c(n2)c(C)nn3C)c1` registered an IC50 of 7060 nM.

Molecule `Cn1c(=O)c2[nH]c(Cc3ccccc3)nc2n(C)c1=O` had an IC50 of 1500 nM. This IC50 is about 4.7-fold lower than that of the molecule before.

Molecule `CCn1c(=O)n(C)c(=O)c2[nH]c(-c3ccccc3)nc21` registered an IC50 of 3 nM.

`Cn1c(=O)c2[nH]c(-c3cccnc3)nc2n(C)c1=O` displayed an IC50 of 50 nM. Compared with the last molecule, the IC50 is about 17-fold higher.

As for `CCn1nc(C)c2nc(-c3ccncc3)[nH]c(=O)c21`, the IC50 stood at 250 nM.

Regarding `Cn1c(=O)c2nc(-c3cccc([N+](=O)[O-])c3)[nH]c2n(C)c1=O`, the IC50 worked out at 50 nM.

As to `Cn1c(=O)c2[nH]c(-c3ccc(Cl)cc3)nc2n(C)c1=O`, the 50% inhibitory concentration (IC50) turned out to be 0.8 nM.

In turn, `Cn1c(=O)c2nc(-c3ccc(Cl)c(Cl)c3)[nH]c2n(C)c1=O` gave an IC50 of 5 nM. This IC50 lies about 6.2-fold higher than the previous one.

On to `Cc1nn(C)c2c(=O)[nH]c(Cc3ccccc3)nc12`, for which the IC50 is 1310 nM.

With `Cn1c(=O)c2[nH]c(-c3ccc([N+](=O)[O-])cc3)nc2n(C)c1=O`, the IC50 stood at 8 nM. Against the preceding molecule, the IC50 is about 160-fold lower.
